Where a SMILES comes first, the peptide text is derived from it. Bridges are numbered along the chain shown (N, C = ends). [ ]: non-standard residue; d: D form. Phe(4-NH2) = Nc1ccc(C[C@H](N)C(=O)O)cc1; Nle = CCCC[C@H](N)C(=O)O
Assays:
Rat whole blood = Rat whole blood (Rattus norvegicus, UniProt P15384); assay type: cell-based; details: IL-17A release, thapsigargin, 24 Hr, at least 2 replicates
human Kv1.6 = molecular target: T1, human Kv1.6 (Homo sapiens, UniProt P17658); experiment: cell-based; details: ratio of patch clamp IC50 values
T1 construct: expressed in transfected cells; host or cells: CHO
T1 sequence (P17658 whole entry): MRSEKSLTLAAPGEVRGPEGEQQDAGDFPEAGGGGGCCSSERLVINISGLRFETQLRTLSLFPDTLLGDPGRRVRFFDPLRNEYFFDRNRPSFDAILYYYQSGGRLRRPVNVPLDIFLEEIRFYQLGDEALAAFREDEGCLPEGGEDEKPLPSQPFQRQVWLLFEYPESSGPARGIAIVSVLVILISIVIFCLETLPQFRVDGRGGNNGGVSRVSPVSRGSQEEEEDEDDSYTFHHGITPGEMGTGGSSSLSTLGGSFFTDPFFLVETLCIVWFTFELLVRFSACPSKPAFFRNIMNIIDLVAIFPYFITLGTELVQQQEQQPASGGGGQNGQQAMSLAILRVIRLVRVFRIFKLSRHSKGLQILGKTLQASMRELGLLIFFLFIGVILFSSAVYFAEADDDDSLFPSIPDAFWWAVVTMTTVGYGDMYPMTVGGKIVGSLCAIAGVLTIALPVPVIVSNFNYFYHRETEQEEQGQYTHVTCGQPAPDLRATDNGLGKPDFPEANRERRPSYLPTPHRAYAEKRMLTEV

human Kv1.1 = molecular target: T2, human Kv1.1 (Homo sapiens, UniProt Q09470); experiment: cell-based; details: ratio of patch clamp IC50 values
T2 construct: expressed in transfected cells; host or cells: CHO
T2 sequence (Q09470 whole entry): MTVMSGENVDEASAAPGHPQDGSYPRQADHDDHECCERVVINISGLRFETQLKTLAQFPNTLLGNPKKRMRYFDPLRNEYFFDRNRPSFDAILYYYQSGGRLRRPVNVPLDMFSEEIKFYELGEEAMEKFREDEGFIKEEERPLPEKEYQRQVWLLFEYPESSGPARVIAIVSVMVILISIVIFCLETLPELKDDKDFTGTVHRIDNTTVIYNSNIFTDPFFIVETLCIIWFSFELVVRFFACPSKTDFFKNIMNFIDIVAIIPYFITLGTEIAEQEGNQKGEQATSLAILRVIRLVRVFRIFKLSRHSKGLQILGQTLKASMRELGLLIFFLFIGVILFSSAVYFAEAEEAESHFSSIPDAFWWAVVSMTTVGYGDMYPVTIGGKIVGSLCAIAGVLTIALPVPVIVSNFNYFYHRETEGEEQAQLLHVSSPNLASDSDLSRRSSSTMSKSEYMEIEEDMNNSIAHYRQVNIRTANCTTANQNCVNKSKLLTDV

human Kv1.2 = molecular target: T3, human Kv1.2 (Homo sapiens, UniProt P16389); experiment: cell-based; details: ratio of patch clamp IC50 values
T3 construct: expressed in transfected cells; host or cells: CHO
T3 sequence (P16389 whole entry): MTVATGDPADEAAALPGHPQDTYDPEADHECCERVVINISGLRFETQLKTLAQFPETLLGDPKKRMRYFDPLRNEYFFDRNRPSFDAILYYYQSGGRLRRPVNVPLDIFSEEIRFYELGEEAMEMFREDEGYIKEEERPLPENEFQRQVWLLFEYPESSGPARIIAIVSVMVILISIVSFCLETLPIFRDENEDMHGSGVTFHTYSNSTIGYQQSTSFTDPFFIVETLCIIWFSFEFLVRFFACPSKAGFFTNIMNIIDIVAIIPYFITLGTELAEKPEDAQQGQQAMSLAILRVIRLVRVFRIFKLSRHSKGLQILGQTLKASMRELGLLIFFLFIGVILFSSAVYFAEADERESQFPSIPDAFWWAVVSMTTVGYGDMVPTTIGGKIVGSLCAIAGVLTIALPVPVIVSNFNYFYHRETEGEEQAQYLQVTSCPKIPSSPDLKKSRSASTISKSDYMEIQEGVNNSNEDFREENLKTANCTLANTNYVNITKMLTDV

Sequence of Rat whole blood (P15384 whole entry): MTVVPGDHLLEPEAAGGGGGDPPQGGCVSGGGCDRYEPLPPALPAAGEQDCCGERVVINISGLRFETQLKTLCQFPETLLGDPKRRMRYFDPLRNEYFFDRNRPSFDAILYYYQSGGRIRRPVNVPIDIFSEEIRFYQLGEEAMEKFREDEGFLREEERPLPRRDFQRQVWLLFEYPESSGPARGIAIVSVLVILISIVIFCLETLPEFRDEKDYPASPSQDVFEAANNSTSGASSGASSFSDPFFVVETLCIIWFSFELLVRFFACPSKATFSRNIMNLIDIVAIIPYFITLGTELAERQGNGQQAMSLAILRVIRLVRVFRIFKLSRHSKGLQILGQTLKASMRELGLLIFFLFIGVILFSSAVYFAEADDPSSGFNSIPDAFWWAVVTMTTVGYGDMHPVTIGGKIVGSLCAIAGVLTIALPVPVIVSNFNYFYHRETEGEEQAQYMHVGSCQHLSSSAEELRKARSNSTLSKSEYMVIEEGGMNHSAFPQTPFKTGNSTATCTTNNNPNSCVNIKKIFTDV

| SMILES | IC50 (Rat whole blood) [pM] | Selectivity ratio Kv1.6/Kv1.3 (human Kv1.6) | Selectivity ratio Kv1.1/Kv1.3 (human Kv1.1) | Selectivity ratio Kv1.2/Kv1.3 (human Kv1.2) |
| --- | --- | --- | --- | --- |
| CCCC[C@@H]1NC(=O)[C@@H]2CSSC[C@H](NC(=O)[C@H](CCCNC(=N)N)NC(=O)[C@H](CCCC)NC(=O)[C@H](CC(=O)O)NC(=O)[C@H](CCCC)NC(=O)[C@@H](N)CC(N)=O)C(=O)N[C@@H](CO)C(=O)N[C@@H](Cc3c[nH]cn3)C(=O)N[C@@H](CO)C(=O)N[C@@H](C(C)C)C(=O)N[C@@H](CCC(=O)O)C(=O)N[C@H]3CSSC[C@H](NC(=O)[C@H](CCCCN)NC(=O)[C@H](CCCCN)NC(=O)[C@H](CC(N)=O)NC1=O)C(=O)N[C@@H](CCCCN)C(=O)N[C@H](C(=O)N[C@@H](Cc1ccc(O)cc1)C(=O)N1CCC[C@H]1C(=O)N[C@@H](CCCNC(=N)N)C(N)=O)CSSC[C@H](NC(=O)[C@H](CCCCN)NC(=O)[C@H](CCC(N)=O)NC(=O)[C@H](CCCCN)NC3=O)C(=O)N[C@@H](CC(C)C)C(=O)N[C@@H](CCCCN)C(=O)N[C@@H](C)C(=O)N[C@@H]([C@@H](C)CC)C(=O)NCC(=O)N[C@@H](CO)C(=O)N[C@@H]([C@@H](C)CC)C(=O)N[C@@H](Cc1ccccc1)C(=O)NCC(=O)N[C@@H](CCCCN)C(=O)N2 [compound 51] (H-N[Nle]D[Nle]RCSHSVECKQKCLKAIGSIFGKC[Nle]NKKCKCYPR-NH2; disulfide 6-27, 12-32, 16-34) | 830 | 1134 | >5600 | 1438 |
| CCCC[C@@H]1NC(=O)[C@@H]2CSSC[C@H](NC(=O)[C@H](CCCNC(=N)N)NC(=O)[C@H](CCCC)NC(=O)[C@H](CC(=O)O)NC(=O)[C@H](CCCC)NC(=O)[C@@H](N)CC(N)=O)C(=O)N[C@@H](CO)C(=O)N[C@@H](C)C(=O)N[C@@H](CO)C(=O)N[C@@H](C(C)C)C(=O)N[C@@H](CCC(=O)O)C(=O)N[C@H]3CSSC[C@H](NC(=O)[C@H](CCCCN)NC(=O)[C@H](CCCCN)NC(=O)[C@H](CC(N)=O)NC1=O)C(=O)N[C@@H](CCCCN)C(=O)N[C@H](C(=O)N[C@@H](Cc1ccc(O)cc1)C(=O)N1CCC[C@H]1C(=O)N[C@@H](CCCNC(=N)N)C(N)=O)CSSC[C@H](NC(=O)[C@H](CCCCN)NC(=O)[C@H](CCC(N)=O)NC(=O)[C@H](CCCCN)NC3=O)C(=O)N[C@@H](CCCCN)C(=O)N[C@@H](C)C(=O)N[C@@H]([C@@H](C)CC)C(=O)NCC(=O)N[C@@H](CO)C(=O)N[C@@H]([C@@H](C)CC)C(=O)N[C@@H](Cc1ccccc1)C(=O)NCC(=O)N[C@@H](CCCCN)C(=O)N2 [compound 53] (H-N[Nle]D[Nle]RCSASVECKQKCKAIGSIFGKC[Nle]NKKCKCYPR-NH2; disulfide 6-26, 12-31, 16-33) | 1000 | 707 | >2200 | 123 |
| CCCC[C@@H]1NC(=O)[C@@H]2CSSC[C@H](NC(=O)[C@H](CCCNC(=N)N)NC(=O)[C@H](CCCC)NC(=O)[C@H](CC(=O)O)NC(=O)[C@H](CCCC)NC(=O)[C@@H](N)CC(N)=O)C(=O)N[C@@H](CO)C(=O)N[C@@H](C)C(=O)N[C@@H](CO)C(=O)N[C@@H](C(C)C)C(=O)N[C@@H](CCC(=O)O)C(=O)N[C@H]3CSSC[C@H](NC(=O)[C@H](CCCCN)NC(=O)[C@H](CCCCN)NC(=O)[C@H](CC(N)=O)NC1=O)C(=O)N[C@@H](CCCCN)C(=O)N[C@H](C(=O)N[C@@H](Cc1ccc(O)cc1)C(=O)N1CCC[C@H]1C(=O)N[C@@H](CCCNC(=N)N)C(N)=O)CSSC[C@H](NC(=O)[C@H](CCCCN)NC(=O)[C@H](CCC(N)=O)NC(=O)[C@H](CCCCN)NC3=O)C(=O)N[C@@H](CC(C)C)C(=O)N[C@@H](CCCCN)C(=O)N[C@@H](C)C(=O)N[C@@H]([C@@H](C)CC)C(=O)NCC(=O)N[C@@H](CO)C(=O)N1CCC[C@H]1C(=O)N[C@@H](Cc1ccccc1)C(=O)NCC(=O)N[C@@H](CCCCN)C(=O)N2 [compound 62] (H-N[Nle]D[Nle]RCSASVECKQKCLKAIGSPFGKC[Nle]NKKCKCYPR-NH2; disulfide 6-27, 12-32, 16-34) | 440 | 9102 | >11600 | 1740 |
| CCCC[C@@H]1NC(=O)[C@@H]2CSSC[C@H](NC(=O)[C@H](CCCNC(=N)N)NC(=O)[C@H](CCCC)NC(=O)[C@H](CC(=O)O)NC(=O)[C@H](CCCC)NC(=O)[C@@H](N)CC(N)=O)C(=O)N[C@@H](CO)C(=O)N[C@@H](C)C(=O)N[C@@H](CO)C(=O)N[C@@H](CCCCN)C(=O)N[C@@H](CCC(=O)O)C(=O)N[C@H]3CSSC[C@H](NC(=O)[C@H](CCCCN)NC(=O)[C@H](CCCCN)NC(=O)[C@H](CC(N)=O)NC1=O)C(=O)N[C@@H](CCCCN)C(=O)N[C@H](C(=O)N[C@@H](Cc1ccc(O)cc1)C(=O)N1CCC[C@H]1C(=O)N[C@@H](CCCNC(=N)N)C(N)=O)CSSC[C@H](NC(=O)[C@H](CCCCN)NC(=O)[C@H](CCC(N)=O)NC(=O)[C@H](CCCCN)NC3=O)C(=O)N[C@@H](CC(C)C)C(=O)N[C@@H](CCCCN)C(=O)N[C@@H](C)C(=O)N[C@@H]([C@@H](C)CC)C(=O)NCC(=O)N[C@@H](CO)C(=O)N[C@@H]([C@@H](C)CC)C(=O)N[C@@H](Cc1ccccc1)C(=O)NCC(=O)N[C@@H](CCCCN)C(=O)N2 [compound 63] (H-N[Nle]D[Nle]RCSASKECKQKCLKAIGSIFGKC[Nle]NKKCKCYPR-NH2; disulfide 6-27, 12-32, 16-34) | 680 | 3929 | >9600 | 587 |
| CCCC[C@H](NC(=O)[C@H](CC(=O)O)NC(=O)[C@H](CCCC)NC(=O)[C@@H](N)CO)C(=O)N[C@@H](CCCNC(=N)N)C(=O)N[C@H]1CSSC[C@@H]2NC(=O)[C@H](CCCCN)NC(=O)CNC(=O)[C@H](Cc3ccccc3)NC(=O)[C@H]([C@@H](C)CC)NC(=O)[C@H](CO)NC(=O)CNC(=O)[C@H]([C@@H](C)CC)NC(=O)[C@H](C)NC(=O)[C@H](CCCCN)NC(=O)[C@H](CC(C)C)NC(=O)[C@@H]3CSSC[C@@H](C(=O)N[C@@H](Cc4ccc(N)cc4)C(=O)N4CCC[C@H]4C(=O)N[C@@H](CCCNC(=N)N)C(N)=O)NC(=O)[C@H](CCCCN)NC(=O)[C@H](CSSC[C@H](NC(=O)[C@H](CCC(=O)O)NC(=O)[C@H](C(C)C)NC(=O)[C@H](CO)NC(=O)[C@H](C)NC(=O)[C@H](CO)NC1=O)C(=O)N[C@@H](CCCCN)C(=O)N[C@@H](CCC(N)=O)C(=O)N[C@@H](CCCCN)C(=O)N3)NC(=O)[C@H](CCCCN)NC(=O)[C@H](CCCCN)NC(=O)[C@H](CC(N)=O)NC(=O)[C@H](CCSC)NC2=O [compound 70] (H-S[Nle]D[Nle]RCSASVECKQKCLKAIGSIFGKCMNKKCKC[Phe(4-NH2)]PR-NH2; disulfide 6-27, 12-32, 16-34) | 790 | >12200 | >12200 | 1720 |
| CCCC[C@H](NC(=O)[C@H](CC(=O)O)NC(=O)[C@H](CCCC)NC(=O)[C@@H](N)CO)C(=O)N[C@@H](CCCNC(=N)N)C(=O)N[C@H]1CSSC[C@@H]2NC(=O)[C@H](CCCCN)NC(=O)CNC(=O)[C@H](Cc3ccccc3)NC(=O)[C@H]([C@@H](C)CC)NC(=O)[C@H](CO)NC(=O)CNC(=O)[C@H]([C@@H](C)CC)NC(=O)[C@H](C)NC(=O)[C@H](CCCCN)NC(=O)[C@H](CC(C)C)NC(=O)[C@@H]3CSSC[C@@H](C(=O)N[C@@H](Cc4ccc(O)cc4)C(=O)N4CCC[C@H]4C(=O)N[C@@H](CCCNC(=N)N)C(N)=O)NC(=O)[C@H](CCCCN)NC(=O)[C@H](CSSC[C@H](NC(=O)[C@H](CCC(=O)O)NC(=O)[C@H](C(C)C)NC(=O)[C@H](CO)NC(=O)[C@H](C)NC(=O)[C@H](CO)NC1=O)C(=O)NCC(=O)N[C@@H](CCC(N)=O)C(=O)N[C@@H](CCCCN)C(=O)N3)NC(=O)[C@H](CCCCN)NC(=O)[C@H](CCCCN)NC(=O)[C@H](CC(N)=O)NC(=O)[C@H](CCSC)NC2=O [compound 71] (H-S[Nle]D[Nle]RCSASVECGQKCLKAIGSIFGKCMNKKCKCYPR-NH2; disulfide 6-27, 12-32, 16-34) | 300 | >27700 | >27700 | 3438 |
| CCCC[C@H](NC(=O)[C@@H](N)CO)C(=O)N[C@@H](CC(=O)O)C(=O)N[C@@H](CCC(=O)O)C(=O)N[C@@H](CCCNC(=N)N)C(=O)N[C@H]1CSSC[C@@H]2NC(=O)[C@H](CCCCN)NC(=O)CNC(=O)[C@H](Cc3ccccc3)NC(=O)[C@H]([C@@H](C)CC)NC(=O)[C@H](CO)NC(=O)CNC(=O)[C@H]([C@@H](C)CC)NC(=O)[C@H](C)NC(=O)[C@H](CCCCN)NC(=O)[C@H](CC(C)C)NC(=O)[C@@H]3CSSC[C@@H](C(=O)N[C@@H](Cc4ccc(O)cc4)C(=O)N4CCC[C@H]4C(=O)N[C@@H](CCCNC(=N)N)C(N)=O)NC(=O)[C@H](CCCCN)NC(=O)[C@H](CSSC[C@H](NC(=O)[C@H](CCC(=O)O)NC(=O)[C@H](C(C)C)NC(=O)[C@H](CO)NC(=O)[C@H](C)NC(=O)[C@H](CO)NC1=O)C(=O)N[C@@H](CCCCN)C(=O)N[C@@H](CCC(N)=O)C(=O)N[C@@H](CCCCN)C(=O)N3)NC(=O)[C@H](CCCCN)NC(=O)[C@H](CCCCN)NC(=O)[C@H](CC(N)=O)NC(=O)[C@H](CCSC)NC2=O [compound 76] (H-S[Nle]DERCSASVECKQKCLKAIGSIFGKCMNKKCKCYPR-NH2; disulfide 6-27, 12-32, 16-34) | 550 | >10600 | >10600 | 430 |
